A short description of series [1]: Mutagenic Risk Assessment in accordance with ICH M7(R1). Particulars: impurities in the synthetic process for X4P-001. As to the method: The assessment included review of all raw materials, including key starting materials, as well as the potential and actual process impurities and degradation products. All assessments were carried out in accordance with ICH M7(R1) guidance.

Series [2] can be described thus: Persistence of the imine impurity HPLC-MS peak in acidic aqueous media. In kind it is physicochemical. The note with it: X4P-001 solubilized in acidic aqueous media. The text has this: The imine impurity, I-1, and likely route of formation are shown in Scheme 1, below.
For series [3], the system named is advanced clear-cell renal cell carcinoma. The note with it: cited from earlier work; for objective response rate: nivolumab 3 mg/kg intravenously every two weeks or everolimus 10 mg tablet orally daily, previously treated patients, P<0.001.
The next series can be described thus: in vivo. The note with it: terminal half-life.
For series [4] the following is noted: in vivo.
The mark [5] stands for this setting: nivolumab compared to everolimus.

This is an account of results in patent US12115156B2, “Compositions of CXCR4 inhibitors and methods of preparation and use” (X4 Pharmaceuticals, Inc., priority 2018, dated 2024).

Consider `ICc1nc2ccccc2[nH]1` [I-10], for which the mutagenicity assessment result in series [1] is “potentially mutagenic”.

Regarding `CC(C)(C)OC(=O)n1c(CI)nc2ccccc21` [I-11], the mutagenicity assessment result in series [1] is reported as “potentially mutagenic”.

As to `C=NCCCCN(Cc1nc2ccccc2[nH]1)[C@H]1CCCc2cccnc21` [I-1, (S)-N-((1H-benzo[d]imidazol-2-yl)methyl)-N-(4-(methyleneamino)butyl)-5,6,7,8-tetrahydroquinolin-8-amine], in series [2], the “stability of the impurity peak (RRT 1.13)” value is recorded as “disappears after a few hours”.

`ClCc1nc2ccccc2[nH]1` [I-8, 2-chloromethylbenzimidazole]: the mutagenicity assessment result in series [1] is “potentially mutagenic”.

With “nivolumab: fully human IgG4 monoclonal antibody binding to the programmed cell death 1 (PD-1) receptor”, the objective response rate in series [3] was 25%. In addition, in series [3] (setting [5]), the “hazard ratio for death” value is on record as “decreased”, the “incidence of Grade 3 or 4 treatment-related adverse events” value is recorded as “lower” and the median overall survival result was “longer”.

On to `NCCCCN(Cc1nc2ccccc2[nH]1)[C@H]1CCCc2cccnc21` [X4P-001], for which, in “in vivo”, the half-life was in the range of 12 to 24 h. In addition, in series [4], the terminal half-life entry was “approximately 14.5 hrs”.

For the compound `CC(C)(C)OC(=O)n1c(CCl)nc2ccccc21` [I-9, boc-2-chloromethylbenzimidazole], the mutagenicity assessment entry in series [1] is recorded as “potentially mutagenic”.

Consider `CO[C@H]1C[C@@H]2CC[C@@H](C)[C@@](O)(O2)C(=O)C(=O)N2CCCC[C@H]2C(=O)O[C@H]([C@H](C)C[C@@H]2CC[C@@H](OCCO)[C@H](OC)C2)CC(=O)[C@H](C)/C=C(\C)[C@@H](O)[C@@H](OC)C(=O)[C@H](C)C[C@H](C)/C=C/C=C/C=C/1C` [everolimus], for which, in series [3], the objective response rate is given as 5%.
